In the test the target is TrkA (Homo sapiens (Human), UniProt P04629). The experiment in a line: TrkA kinase HTRF enzyme inhibition assay. Particulars: TrkA pre-incubated with 200 μM ATP. In kind it is biochemical. How it is done: TrkA enzyme was obtained from Invitrogen (as catalog numbers PV3144, PV3616, and PV3617, respectively). Enzyme activity was measured in an HTRF® (homogeneous time resolved fluorescence) assay, which detects enzymatic phosphorylation of a biotinylated synthetic peptide substrate (an LCK peptide analog, biotin-ahx-[…], from Genemed Synthesis). Phosphorylation is assessed by HTRF® in the presence of an anti-phosphotyrosine antibody conjugated to Eu^3+ cryptate (Cisbio) as donor fluorophore, and streptavidin conjugated to allophycocyanin (ProZyme) as acceptor fluorophore. The HTRF® signal was detected at two different wavelengths (620 nm and 665 nm) which were used to calculate the fluorescence ratio.
TrkA, sequence (P04629 33-796): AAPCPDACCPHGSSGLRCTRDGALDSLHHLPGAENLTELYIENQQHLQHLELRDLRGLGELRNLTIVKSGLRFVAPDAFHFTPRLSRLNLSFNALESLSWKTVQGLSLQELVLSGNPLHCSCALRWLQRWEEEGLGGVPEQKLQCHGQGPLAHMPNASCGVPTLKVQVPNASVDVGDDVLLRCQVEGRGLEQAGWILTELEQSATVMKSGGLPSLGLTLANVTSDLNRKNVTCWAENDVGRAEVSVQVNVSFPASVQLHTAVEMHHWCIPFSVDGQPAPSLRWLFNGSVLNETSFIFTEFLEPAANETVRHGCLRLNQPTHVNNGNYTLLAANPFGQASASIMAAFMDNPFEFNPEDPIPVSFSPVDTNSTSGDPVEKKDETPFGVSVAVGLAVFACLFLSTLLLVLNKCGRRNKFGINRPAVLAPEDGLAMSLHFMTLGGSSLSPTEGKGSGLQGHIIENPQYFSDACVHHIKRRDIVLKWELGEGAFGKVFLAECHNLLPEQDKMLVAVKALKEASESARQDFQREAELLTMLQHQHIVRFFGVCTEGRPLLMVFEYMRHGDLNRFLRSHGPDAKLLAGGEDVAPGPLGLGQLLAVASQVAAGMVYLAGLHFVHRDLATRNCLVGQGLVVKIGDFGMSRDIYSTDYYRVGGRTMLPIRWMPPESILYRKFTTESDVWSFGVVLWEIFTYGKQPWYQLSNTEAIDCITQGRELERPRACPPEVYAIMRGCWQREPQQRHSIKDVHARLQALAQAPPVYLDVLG
TrkA enzyme was titrated to a concentration optimized to ensure accurate measurement of the initial reaction rate. To allow the TrkA enzyme to undergo activation and auto-phosphorylation, a 20 minute pre-incubation with ATP was carried out (at twice the final targeted enzyme and ATP concentration) prior to addition of test compound and the peptide substrate.
TrkA in vitro assays were performed by pre-incubating TrkA (2-10 nM) with ATP (200 μM) for 20 minutes at ambient temperature in 50 mM HEPES pH 7.4, 10 mM MgCl2, 2 mM MnCl2, 100 μM Na3VO4, 1 mM dithiothreitol, 0.01% BSA (bovine serum albumin). Then, to the activated Trk enzyme mixture was added the test compound in 2% dimethyl sulfoxide. After 10 minutes, the peptide substrate (125 nM) was added. After 1 hour, enzyme reactions were terminated by addition of equal reaction volumes of detection/stop reagent (containing 0.2 μg/mL anti-phosphotyrosine monoclonal antibody labeled with europium from Cisbio (catalog#PT66-K), and 4 μg/mL PhycoLink® Streptavidin-Allophycocyanin conjugate from ProZyme (catalog#PJ25S) in 60 mM EDTA in 40 mM HEPES pH 7.4, 480 mM KF, 0.01% Tween® 20 and 0.1% BSA bovine serum albumin) Reaction plates were stored at 4° C. overnight before reading the fluorescence ratio signal on a PerkinElmer EnVision™ fluorescence detector. Individual reaction wells were stopped at time points to obtain reaction rates. The test inhibitor compounds were assayed in duplicate, at half-log serial dilutions over a range of concentrations (e.g. starting at 50 μM or 5 μM as the high compound concentration). The percent Trk enzyme inhibition was calculated from the initial rates of the inhibited reactions relative to the uninhibited control. IC50 values were calculated by fitting the inhibition percent to the concentration of inhibitor [I] in the assay in equation 1 below, to solve for the IC50. Inhibition %=100[I]/([I]+[IC50]) equation 1
In general terms: TR-FRET usually uses a lanthanide donor and a delayed reading to cut background.

Each structure is given as a SMILES string.

One may read the IC50 as the concentration at which inhibition is half-maximal. Read a high IC50 as lower potency.

Take `CCOc1nc(N2CCN(C(C)=O)CC2)ccc1NC(=O)c1coc2c1C(=O)NC1(CCC1)C2` [Example 111, N-[6-(4-acetylpiperazin-1-yl)-2-ethoxypyridin-3-yl]-4′-oxo-4′,7′-dihydro-5′H-spiro[cyclobutane-1,6′-furo[3,2-c]pyridine]-3′-carboxamide]: the midpoint of inhibition, the IC50, lay at 3.9 nM.

On to `CCOc1ccc(NC(=O)c2coc3c2C(=O)N(C)CC3)cn1` [Example 72, N-(6-ethoxypyridin-3-yl)-5-methyl-4-oxo-4,5,6,7-tetrahydrofuro[3,2-c]pyridine-3-carboxamide], for which the 50% inhibitory concentration (IC50) amounted to 2480 nM.

In turn, `CC1(C)CC(=O)c2c(C(=O)Nc3ccc(N4CCN(S(C)(=O)=O)CC4)cc3)coc2C1` [Example 152, 6,6-dimethyl-N-{4-[4-(methylsulfonyl)piperazin-1-yl]phenyl}-4-oxo-4,5,6,7-tetrahydro-1-benzofuran-3-carboxamide] returned an IC50 of 35.8 nM.

In turn, `CC(C)Oc1nc(N2CC[C@H](N(C)C)C2)ccc1NC(=O)c1coc2c1C(=O)NC(C)(C)C2` [Example 136, N-{6-[(3S)-3-(dimethylamino)pyrrolidin-1-yl]-2-isopropoxypyridin-3-yl}-6,6-dimethyl-4-oxo-4,5,6,7-tetrahydrofuro[3,2-c]pyridine-3-carboxamide] displayed an IC50 of 10.2 nM.

On to `CC(=O)N1CCN(c2ccc(NC(=O)c3coc4c3C(=O)NC(C)(C)C4)c(OC3CCOCC3)n2)CC1` [Example 180, N-[6-(4-acetylpiperazin-1-yl)-2-(tetrahydro-2H-pyran-4-yloxy)pyridin-3-yl]-6,6-dimethyl-4-oxo-4,5,6,7-tetrahydrofuro[3,2-c]pyridine-3-carboxamide], for which the 50% inhibitory concentration (IC50) is 11 nM.

For the compound `CCOc1nc(N2CCN(C(C)=O)CC2)ccc1NC(=O)c1coc2c1C(=O)N([C@@H](C)COC(C)=O)CC2` [Example 100, (2S)-2-[3-{[6-(4-acetylpiperazin-1-yl)-2-ethoxypyridin-3-yl]carbamoyl}-4-oxo-6,7-dihydrofuro[3,2-c]pyridin-5(4H)-yl]propyl acetate], the midpoint of inhibition, the IC50, lay at 23.5 nM.

In the case of `O=C(Nc1ccc(N2CCOCC2)cc1)c1coc2c1C(=O)NCC2` [Example 3, N-[4-(morpholin-4-yl)phenyl]-4-oxo-4,5,6,7-tetrahydrofuro[3,2-c]pyridine-3-carboxamide], the midpoint of inhibition, the IC50, lay at 173 nM.

Turning to `CCOc1nc(N2CCN(C(C)=O)CC2)ccc1NC(=O)c1coc2c1C(=O)N([C@H](C)COC(C)=O)CC2` [Example 98, (2R)-2-[3-{[6-(4-acetylpiperazin-1-yl)-2-ethoxypyridin-3-yl]carbamoyl}-4-oxo-6,7-dihydrofuro[3,2-c]pyridin-5(4H)-yl]propyl acetate], half-maximal inhibition (IC50) was put at 1.5 nM.

Regarding `COc1nc(N2CCN(C(C)=O)CC2)ccc1NC(=O)c1coc2c1C(=O)NC(C)(C)C2` [Example 122, N-[6-(4-acetylpiperazin-1-yl)-2-methoxypyridin-3-yl]-6,6-dimethyl-4-oxo-4,5,6,7-tetrahydrofuro[3,2-c]pyridine-3-carboxamide], the IC50 stood at 14.1 nM.

With `CN1CCc2occ(C(=O)Nc3ccc(N4CCCCC4)cc3)c2C1=O` [Example 61, 5-methyl-4-oxo-N-[4-(piperidin-1-yl)phenyl]-4,5,6,7-tetrahydrofuro[3,2-c]pyridine-3-carboxamide], the half-maximal inhibitory concentration (IC50) came to 195 nM.

On to `COc1cc(N2CCN(C(=O)OC(C)(C)C)CC2)ccc1NC(=O)c1coc2c1C(=O)CC(C)(CO)C2` (centres unmarked) [Example 165, tert-butyl 4-[4-({[6-(hydroxymethyl)-6-methyl-4-oxo-4,5,6,7-tetrahydro-1-benzofuran-3-yl]carbonyl}amino)-3-methoxyphenyl]piperazine-1-carboxylate], for which the 50% inhibitory concentration (IC50) came out at 13.3 nM.

As to `COc1cc(N2CCN(C(C)=O)CC2)ccc1NC(=O)c1coc2c1C(=O)NCC2` [Example 18, N-[4-(4-acetylpiperazin-1-yl)-2-methoxyphenyl]-4-oxo-4,5,6,7-tetrahydrofuro[3,2-c]pyridine-3-carboxamide], the midpoint of inhibition, the IC50, lay at 59.8 nM.

On to `CN1CCc2occ(C(=O)Nc3ccc4c(cnn4C)c3)c2C1=O` [Example 24, 5-methyl-N-(1-methyl-1H-indazol-5-yl)-4-oxo-4,5,6,7-tetrahydrofuro[3,2-c]pyridine-3-carboxamide], for which the half-maximal inhibitory concentration (IC50) was found to be 189 nM.

In the case of `CN1CCc2occ(C(=O)Nc3ccc4ncccc4c3)c2C1=O` [Example 63, 5-methyl-4-oxo-N-(quinolin-6-yl)-4,5,6,7-tetrahydrofuro[3,2-c]pyridine-3-carboxamide], the IC50 is 319 nM.

`CS(=O)(=O)NCCn1ncc2cc(NC(=O)c3coc4c3C(=O)NCC4)ccc21` [Example 58, N-(1-{2-[(methylsulfonyl)amino]ethyl}-1H-indazol-5-yl)-4-oxo-4,5,6,7-tetrahydrofuro[3,2-c]pyridine-3-carboxamide]: the 50% inhibitory concentration (IC50) amounted to 105 nM.

On to `O=C(Nc1ccc(O)cc1)c1coc2c1C(=O)NCC2` [Example 31, N-(4-hydroxyphenyl)-4-oxo-4,5,6,7-tetrahydrofuro[3,2-c]pyridine-3-carboxamide], for which the IC50 is 390 nM.

As for `COC[C@@H]1CN(c2ccc(NC(=O)c3coc4c3C(=O)NC(C)(C)C4)c(OCC(C)(C)O)n2)CCN1C(C)=O` [Example 142, N-{6-[(3S)-4-acetyl-3-(methoxymethyl)piperazin-1-yl]-2-(2-hydroxy-2-methylpropoxy)pyridin-3-yl}-6,6-dimethyl-4-oxo-4,5,6,7-tetrahydrofuro[3,2-c]pyridine-3-carboxamide], the half-inhibitory concentration (IC50) amounted to 1.8 nM.

In turn, `O=C(Nc1ccc2c(cnn2CCN2CCCC2)c1)c1coc2c1C(=O)NCC2` [Example 54, 4-oxo-N-{1-[2-(pyrrolidin-1-yl)ethyl]-1H-indazol-5-yl}-4,5,6,7-tetrahydrofuro[3,2-c]pyridine-3-carboxamide] displayed a concentration for half-maximal inhibition (IC50) of 108 nM.

Compound `CC(C)Oc1nc(N2CCN(C(=O)N3CCOCC3)C[C@H]2CO)ccc1NC(=O)c1coc2c1C(=O)NC(C)(C)C2` [Example 135, N-{6-[(2S)-2-(hydroxymethyl)-4-(morpholin-4-ylcarbonyl)piperazin-1-yl]-2-isopropoxypyridin-3-yl}-6,6-dimethyl-4-oxo-4,5,6,7-tetrahydrofuro[3,2-c]pyridine-3-carboxamide] yielded an IC50 of 2.3 nM.

`COc1cc(N2CCN(S(C)(=O)=O)CC2)ccc1NC(=O)c1coc2c1C(=O)NC(C)(C)C2` [Example 125, N-{2-methoxy-4-[4-(methylsulfonyl)piperazin-1-yl]phenyl}-6,6-dimethyl-4-oxo-4,5,6,7-tetrahydrofuro[3,2-c]pyridine-3-carboxamide] registered an IC50 of 35.9 nM.

Consider `COc1cc(N2CCN(C(C)=O)CC2)ccc1NC(=O)c1coc2c1C(=O)C1(COC1)OC2` [Example 172, N-[4-(4-acetylpiperazin-1-yl)-2-methoxyphenyl]-4-oxo-4,7-dihydrospiro[furo[2,3-c]pyran-5,3′-oxetane]-3-carboxamide], for which the IC50 worked out at 60 nM.

As for `CN1CCc2occ(C(=O)Nc3ccc(C#N)cc3)c2C1=O` [Example 67, N-(4-cyanophenyl)-5-methyl-4-oxo-4,5,6,7-tetrahydrofuro[3,2-c]pyridine-3-carboxamide], it took 1080 nM to reach half-maximal inhibition (IC50).

`CC(=O)N1CCN(c2ccc(NC(=O)c3coc4c3C(=O)NC(C)(C)C4)c(OC(C)C)n2)C[C@@H]1CO` [Example 138, N-{6-[(3R)-4-acetyl-3-(hydroxymethyl)piperazin-1-yl]-2-isopropoxypyridin-3-yl}-6,6-dimethyl-4-oxo-4,5,6,7-tetrahydrofuro[3,2-c]pyridine-3-carboxamide] showed an IC50 of 6.3 nM.

`CCOc1nc(N2CCN(C(C)=O)CC2)ccc1NC(=O)c1coc2c1C(=O)N[C@@H]([C@@H](C)O)C2` [Example 115, (6R)—N-[6-(4-acetylpiperazin-1-yl)-2-ethoxypyridin-3-yl]-6-[(1R)-1-hydroxyethyl]-4-oxo-4,5,6,7-tetrahydrofuro[3,2-c]pyridine-3-carboxamide] registered an IC50 of 8.5 nM.

Take `CC(=O)N1CCN(c2ccc(NC(=O)c3coc4c3C(=O)N(CCOCc3ccccc3)CC4)c(OCCOCc3ccccc3)n2)CC1` [Example 86, N-{6-(4-acetylpiperazin-1-yl)-2-[2-(benzyloxy)ethoxy]pyridin-3-yl}-5-[2-(benzyloxy)ethyl]-4-oxo-4,5,6,7-tetrahydrofuro[3,2-c]pyridine-3-carboxamide]: the 50% inhibitory concentration (IC50) is 1320 nM.

Consider `CCOc1nc(N2CCN(C(C)=O)CC2)ccc1NC(=O)c1coc2c1C(=O)NCC2` [Example 19, N-[6-(4-acetylpiperazin-1-yl)-2-ethoxypyridin-3-yl]-4-oxo-4,5,6,7-tetrahydrofuro[3,2-c]pyridine-3-carboxamide], for which the concentration for half-maximal inhibition (IC50) was 16.3 nM.

(Values after US9777020B2, “Furo-3-carboxamide derivatives and methods of use” (AbbVie Inc., priority 2014, dated 2017).)
